{"source": "patent US11045472B2", "about": "“Quinazoline-pyridine derivatives for the treatment of cancer-related disorders” (ARCUS BIOSCIENCES, INC., priority 2017, dated 2021)", "key": {"Human A2AR": {"target": "T1, Human A2AR (Homo sapiens, UniProt P29274)", "T1 construct": "expressed in transfected cells; host or cells: CHO-T-REx cells (inducible expression)", "T1 sequence (P29274 whole entry)": "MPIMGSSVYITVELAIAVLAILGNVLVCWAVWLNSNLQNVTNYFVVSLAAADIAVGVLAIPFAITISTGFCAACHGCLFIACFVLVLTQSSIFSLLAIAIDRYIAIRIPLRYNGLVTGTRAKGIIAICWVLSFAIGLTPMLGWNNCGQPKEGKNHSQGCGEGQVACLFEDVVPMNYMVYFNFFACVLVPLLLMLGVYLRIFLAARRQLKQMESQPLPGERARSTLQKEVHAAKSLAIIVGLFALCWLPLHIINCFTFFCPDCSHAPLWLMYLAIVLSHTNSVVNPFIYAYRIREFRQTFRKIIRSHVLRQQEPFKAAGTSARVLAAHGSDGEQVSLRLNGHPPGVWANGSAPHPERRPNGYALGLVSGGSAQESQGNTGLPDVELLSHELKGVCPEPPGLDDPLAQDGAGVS", "experiment": "human 2A Adenosine Receptor (A2aR) CHO-TREx cAMP functional assay", "format": "cell-based", "conditions": "cAMP antagonist functional assay, CHO-T-REx cells expressing Human A2AR, NECA stimulation; read-out: Potency: A2AR KB", "experimental": "Measurement of the Adenosine Receptor Activity of Compounds using a human 2A Adenosine Receptor (A2aR) CHO-TREx cAMP Functional Assay\nThe cAMP antagonist functional assay (Perkin Elmer) was performed on CHO-T-REx cells induced to express Human A2AR. Cells were seeded to a white 384-well Opti plate at a density of 1,000 to 2,500 cells per well followed by incubation with various concentrations of compound (ranging from 1 μM to 0 μM) at 37° C. for 1 hour.\n(§1) A 1:2 serial dilution of NECA (Sigma Aldrich) from 1 μM to 0 μM was added to the cell stimulation mixture and incubated for 30 min at 37° C. After 30 min incubation, 5 μL of Ulight-anti-cAMP (1:150 dilution with conjugate and lysis buffer provided by Perkin Elmer) and 5 μL of Eu-cAMP tracer (1:50 dilution with conjugate and lysis buffer provided by Perkin Elmer) was added the cells and incubated for an hour. FRET signal was detected with an Envision multilabel plate reader (Perkin Elmer) loaded with 615 nm […] filters and 665 nm emission filters.\n(§2) Data analysis was performed using on GraphPad Prism (version 7.02) to determine the KB of the test compounds."}, "Human A2BR": {"target": "T2, Human A2BR (Homo sapiens, UniProt P29275)", "T2 sequence (P29275 1-332)": "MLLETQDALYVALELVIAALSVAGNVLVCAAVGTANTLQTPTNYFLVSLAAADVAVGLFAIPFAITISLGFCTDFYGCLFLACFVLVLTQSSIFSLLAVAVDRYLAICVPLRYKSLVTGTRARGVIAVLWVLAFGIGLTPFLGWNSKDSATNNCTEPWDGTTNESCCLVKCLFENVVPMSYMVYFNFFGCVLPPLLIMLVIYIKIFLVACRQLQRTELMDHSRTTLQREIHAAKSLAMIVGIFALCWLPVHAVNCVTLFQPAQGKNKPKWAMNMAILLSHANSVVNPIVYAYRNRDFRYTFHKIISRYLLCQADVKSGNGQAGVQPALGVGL", "experiment": "Human 2B Adenosine Receptor CHO-K1 cAMP functional assay", "format": "cell-based", "conditions": "cAMP antagonist functional assay, CHO-K1 cells stably expressing Human A2BR, NECA stimulation; read-out: Potency: A2BR KB", "experimental": "Measurement of the Adenosine Receptor Activity of Compounds Using a Human 2B Adenosine Receptor CHO-K1 cAMP Functional Assay\nCHO-K1 cells stably expressing Human Adenosine 2B Receptor (A2BR: Cat. No. M000329, GenScript) were purchased from GenScript Inc., Piscataway, N.J. 08854, USA.\nThe cAMP antagonist functional assay (Perkin Elmer) was performed on CHO-K1 cells stably expressing Human A2BR. 1×10^6 cells were seeded in T75 flasks and cultured at 37° C. and 5% CO2 overnight. 2,000-4,000 cells/well of stably-expressed A2bR CHO-K1 cells were then seeded to a white 384-well Opti plate followed by compound 1 incubation at various concentrations (ranging from 1 μM to 0 μM) at 37° C. for 1 hour.\nas §1, §2"}}, "data": [{"molecule": "COc1cccc2c(-c3cn(Cc4cccc(-c5cccc(C(=O)O)c5)n4)nn3)nc(N)nc12", "values": [{"measurement": "Kb", "setting": "Human A2AR", "value": "< 100", "unit": "nM"}, {"measurement": "Kb", "setting": "Human A2BR", "value": "< 100", "unit": "nM"}]}, {"molecule": "COc1cccc2c(-c3cn(Cc4cccc([C@](C)(O)C(F)(F)F)n4)nn3)nc(N)nc12", "values": [{"measurement": "Kb", "setting": "Human A2AR", "value": "< 100", "unit": "nM"}, {"measurement": "Kb", "setting": "Human A2BR", "value": "< 100", "unit": "nM"}]}, {"molecule": "COc1cccc2c(-c3cn(Cc4cccc(-c5ccccc5C(=O)O)n4)nn3)nc(N)nc12", "values": [{"measurement": "Kb", "setting": "Human A2AR", "value": "< 100", "unit": "nM"}, {"measurement": "Kb", "setting": "Human A2BR", "value": "100 to 1000", "unit": "nM"}]}, {"molecule": "COc1cccc2c(-c3cnn(Cc4cccc(C5(O)CCC5)n4)c3)nc(N)nc12", "values": [{"measurement": "Kb", "setting": "Human A2AR", "value": "< 100", "unit": "nM"}, {"measurement": "Kb", "setting": "Human A2BR", "value": "< 100", "unit": "nM"}]}, {"molecule": "COc1cccc2c(-c3cn(Cc4cccc(C(C)(C)CO)n4)nn3)nc(N)nc12", "values": [{"measurement": "Kb", "setting": "Human A2AR", "value": "< 100", "unit": "nM"}, {"measurement": "Kb", "setting": "Human A2BR", "value": "< 100", "unit": "nM"}]}, {"molecule": "CC(C)(O)c1cccc(Cn2cc(-c3nc(N)nc4c(F)c(F)ccc34)nn2)n1", "values": [{"measurement": "Kb", "setting": "Human A2AR", "value": "< 100", "unit": "nM"}, {"measurement": "Kb", "setting": "Human A2BR", "value": "< 100", "unit": "nM"}]}, {"molecule": "COc1cccc2c(-c3cn(Cc4cccc(C(C)(C)O)n4)nn3)nc(NC3CC3)nc12", "values": [{"measurement": "Kb", "setting": "Human A2AR", "value": "< 100", "unit": "nM"}, {"measurement": "Kb", "setting": "Human A2BR", "value": "< 100", "unit": "nM"}]}, {"molecule": "COc1cccc2c(-c3cn(Cc4cccc(C(C)(C)O)n4)nn3)nc(NC(C)C)nc12", "values": [{"measurement": "Kb", "setting": "Human A2AR", "value": "< 100", "unit": "nM"}, {"measurement": "Kb", "setting": "Human A2BR", "value": "< 100", "unit": "nM"}]}, {"molecule": "COc1c(F)ccc2c(-c3cn(Cc4cccc(C(C)(C)CO)n4)nn3)nc(N)nc12", "values": [{"measurement": "Kb", "setting": "Human A2AR", "value": "< 100", "unit": "nM"}, {"measurement": "Kb", "setting": "Human A2BR", "value": "< 100", "unit": "nM"}]}, {"molecule": "COc1cccc2c(-c3cn(Cc4cccc(-c5ccc(C(=O)O)cc5)n4)nn3)nc(N)nc12", "values": [{"measurement": "Kb", "setting": "Human A2AR", "value": "< 100", "unit": "nM"}, {"measurement": "Kb", "setting": "Human A2BR", "value": "< 100", "unit": "nM"}]}, {"molecule": "COc1cccc2c(-c3cn(Cc4cccc(C(C)(C)O)n4)nn3)nc(N[C@H]3CCOC3)nc12", "values": [{"measurement": "Kb", "setting": "Human A2AR", "value": "< 100", "unit": "nM"}, {"measurement": "Kb", "setting": "Human A2BR", "value": "< 100", "unit": "nM"}]}, {"molecule": "COc1cccc2c(-c3cn(Cc4cccc(C5(O)COC5)n4)nn3)nc(N)nc12", "values": [{"measurement": "Kb", "setting": "Human A2AR", "value": "< 100", "unit": "nM"}, {"measurement": "Kb", "setting": "Human A2BR", "value": "< 100", "unit": "nM"}]}, {"molecule": "CCOc1cccc2c(-c3cn(Cc4cccc(C(C)(C)O)n4)nn3)nc(N)nc12", "values": [{"measurement": "Kb", "setting": "Human A2AR", "value": "< 100", "unit": "nM"}, {"measurement": "Kb", "setting": "Human A2BR", "value": "100 to 1000", "unit": "nM"}]}, {"molecule": "COc1ccc2c(-c3cn(Cc4cccc(C(C)(C)O)n4)nn3)nc(N)nc2c1", "values": [{"measurement": "Kb", "setting": "Human A2AR", "value": "< 100", "unit": "nM"}, {"measurement": "Kb", "setting": "Human A2BR", "value": "< 100", "unit": "nM"}]}, {"molecule": "Nc1nc(-c2cn(Cc3cccc(C4(O)COC4)n3)nn2)c2cccc(F)c2n1", "values": [{"measurement": "Kb", "setting": "Human A2AR", "value": "< 100", "unit": "nM"}, {"measurement": "Kb", "setting": "Human A2BR", "value": "100 to 1000", "unit": "nM"}]}, {"molecule": "COc1c(F)ccc2c(-c3cn(Cc4cccc(C5(O)COC5)n4)nn3)nc(N)nc12", "values": [{"measurement": "Kb", "setting": "Human A2AR", "value": "< 100", "unit": "nM"}, {"measurement": "Kb", "setting": "Human A2BR", "value": "< 100", "unit": "nM"}]}, {"molecule": "COc1cccc2c(-c3cn(Cc4cccc(COC[C@H]5CCCO5)n4)nn3)nc(N)nc12", "values": [{"measurement": "Kb", "setting": "Human A2AR", "value": "< 100", "unit": "nM"}, {"measurement": "Kb", "setting": "Human A2BR", "value": "< 100", "unit": "nM"}]}, {"molecule": "COc1cccc2c(-c3cn(Cc4cccc([C@@](C)(O)C(F)(F)F)n4)nn3)nc(N)nc12", "values": [{"measurement": "Kb", "setting": "Human A2AR", "value": "< 100", "unit": "nM"}, {"measurement": "Kb", "setting": "Human A2BR", "value": "< 100", "unit": "nM"}]}, {"molecule": "COc1cccc2c(-c3cn(Cc4cccc(N5CCC(O)C5)n4)nn3)nc(N)nc12", "note": "(stereo not drawn)", "values": [{"measurement": "Kb", "setting": "Human A2AR", "value": "< 100", "unit": "nM"}, {"measurement": "Kb", "setting": "Human A2BR", "value": "< 100", "unit": "nM"}]}, {"molecule": "CC(C)(O)c1cccc(Cn2cc(-c3nc(N)nc4cc(C#N)ccc34)nn2)n1", "values": [{"measurement": "Kb", "setting": "Human A2AR", "value": "< 100", "unit": "nM"}, {"measurement": "Kb", "setting": "Human A2BR", "value": "< 100", "unit": "nM"}]}, {"molecule": "COCCOCc1cccc(Cn2cc(-c3nc(N)nc4c(Cl)cccc34)nn2)n1", "values": [{"measurement": "Kb", "setting": "Human A2AR", "value": "< 100", "unit": "nM"}, {"measurement": "Kb", "setting": "Human A2BR", "value": "< 100", "unit": "nM"}]}, {"molecule": "COc1cccc2c(-c3cn(Cc4cccc(N5CCCC5=O)n4)nn3)nc(N)nc12", "values": [{"measurement": "Kb", "setting": "Human A2AR", "value": "< 100", "unit": "nM"}, {"measurement": "Kb", "setting": "Human A2BR", "value": "< 100", "unit": "nM"}]}, {"molecule": "COc1cccc2c(-c3cn(Cc4cccc(C(C)(O)C(F)(F)F)n4)nn3)nc(N)nc12", "note": "(stereo not drawn)", "values": [{"measurement": "Kb", "setting": "Human A2AR", "value": "< 100", "unit": "nM"}, {"measurement": "Kb", "setting": "Human A2BR", "value": "< 100", "unit": "nM"}]}, {"molecule": "CCOC(=O)N1CCC(c2cccc(Cn3cc(-c4nc(N)nc5c(OC)cccc45)nn3)n2)CC1", "values": [{"measurement": "Kb", "setting": "Human A2AR", "value": "< 100", "unit": "nM"}, {"measurement": "Kb", "setting": "Human A2BR", "value": "< 100", "unit": "nM"}]}, {"molecule": "COc1cc(F)cc2c(-c3cn(Cc4cccc(C(C)(C)O)n4)nn3)nc(N)nc12", "values": [{"measurement": "Kb", "setting": "Human A2AR", "value": "< 100", "unit": "nM"}, {"measurement": "Kb", "setting": "Human A2BR", "value": "< 100", "unit": "nM"}]}, {"molecule": "CC(C)(CO)c1cccc(Cn2cc(-c3nc(N)nc4c(F)cccc34)nn2)n1", "values": [{"measurement": "Kb", "setting": "Human A2AR", "value": "< 100", "unit": "nM"}, {"measurement": "Kb", "setting": "Human A2BR", "value": "< 100", "unit": "nM"}]}, {"molecule": "COc1cccc2c(-c3cn(Cc4cccc(C5(O)CCOCC5)n4)nn3)nc(N)nc12", "values": [{"measurement": "Kb", "setting": "Human A2AR", "value": "< 100", "unit": "nM"}, {"measurement": "Kb", "setting": "Human A2BR", "value": "< 100", "unit": "nM"}]}]}
